According to ChEMBL document CHEMBL6074626, “Recent advances in triazole synthesis via click chemistry and their pharmacological applications: A review” (Bioorg Med Chem Lett, 2024):
Converted amounts (≈) assume the structure as drawn. Values belong to the compound of their own block, whether it stands above or below them.

Columns and labels:
[1] = test system: HT-29; experiment: Cytotoxicity against human HT-29 cells assessed as reduction in cell viability incubated for 72 hrs by MTT assay; conditions: HT-29, 72 h
[2] = test system: MCF7; experiment: Cytotoxicity against human MCF7 cells assessed as reduction in cell viability incubated for 72 hrs by MTT assay; conditions: MCF7, 72 h
[3] = test system: MOLT-4; experiment: Cytotoxicity against human MOLT-4 cells assessed as reduction in cell viability incubated for 72 hrs by MTT assay; conditions: MOLT-4, 72 h
[4] = test system: Staphylococcus aureus; experiment: microbe, parasite or virus in culture; conditions: ATCC 25923
Description: Antibacterial activity against Staphylococcus aureus ATCC 25923 assessed as reduction in bacterial growth incubated for 18 to 24 hrs by broth microdilution method

[5] = test system: Bacillus cereus; experiment: microbe, parasite or virus in culture; conditions: ATTC 10876
Description: Antibacterial activity against Bacillus cereus ATTC 10876 assessed as reduction in bacterial growth incubated for 18 to 24 hrs by broth microdilution method

[6] = test system: Proteus mirabilis; experiment: microbe, parasite or virus in culture; conditions: ATCC 35659
Description: Antibacterial activity against Proteus mirabilis ATCC 35659 assessed as reduction in bacterial growth incubated for 18 to 24 hrs by broth microdilution method

[7] = test system: Enterococcus faecalis; experiment: microbe, parasite or virus in culture; conditions: ATCC 29212, 24 h
Description: Antibacterial activity against Enterococcus faecalis ATCC 29212 assessed as inhibition of bacterial growth incubated for 24 hrs by broth microdilution method

[8] = test system: Pseudomonas aeruginosa; experiment: microbe, parasite or virus in culture; conditions: ATCC 27853
Description: Antimicrobial activity against Pseudomonas aeruginosa ATCC 27853 assessed as inhibition of microbial growth by CLSI protocol based two-fold serial broth microdilution method

[9] = test system: Escherichia coli; experiment: microbe, parasite or virus in culture; conditions: ATCC 25922
Description: Antibacterial activity against Escherichia coli ATCC 25922 assessed as reduction in bacterial growth incubated for 18 to 24 hrs by broth microdilution method

[10] = test system: Enterococcus faecalis; experiment: microbe, parasite or virus in culture; conditions: ATTC 29212, 24 h
Description: Antibacterial activity against Enterococcus faecalis ATCC 29212 assessed as reduction in bacterial growth incubated for 24 hrs by CLSI protocol based assay

[11] = target: T1, Prostaglandin G/H synthase 1 (Ovis aries, UniProt P05979); experiment: Inhibition of ovine COX-1
T1 sequence (P05979 whole entry): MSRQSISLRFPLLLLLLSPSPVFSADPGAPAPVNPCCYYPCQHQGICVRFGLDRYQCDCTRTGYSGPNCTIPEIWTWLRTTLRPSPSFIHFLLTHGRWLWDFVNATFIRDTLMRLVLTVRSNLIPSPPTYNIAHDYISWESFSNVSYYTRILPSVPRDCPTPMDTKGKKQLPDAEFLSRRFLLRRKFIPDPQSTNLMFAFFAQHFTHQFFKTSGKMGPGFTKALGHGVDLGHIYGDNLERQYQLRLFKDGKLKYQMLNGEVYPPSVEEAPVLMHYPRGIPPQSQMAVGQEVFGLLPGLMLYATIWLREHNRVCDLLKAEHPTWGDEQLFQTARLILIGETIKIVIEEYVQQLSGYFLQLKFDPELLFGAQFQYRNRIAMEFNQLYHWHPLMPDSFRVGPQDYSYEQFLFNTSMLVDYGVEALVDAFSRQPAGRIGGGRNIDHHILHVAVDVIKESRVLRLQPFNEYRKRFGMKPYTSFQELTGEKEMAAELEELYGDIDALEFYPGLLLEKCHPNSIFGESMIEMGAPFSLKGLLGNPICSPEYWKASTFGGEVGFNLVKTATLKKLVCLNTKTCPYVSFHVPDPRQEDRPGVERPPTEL

[12] = target: T2, Prostaglandin G/H synthase 2 (Homo sapiens, UniProt P35354); experiment: Inhibition of human recombinant COX-2
T2 sequence (P35354 whole entry): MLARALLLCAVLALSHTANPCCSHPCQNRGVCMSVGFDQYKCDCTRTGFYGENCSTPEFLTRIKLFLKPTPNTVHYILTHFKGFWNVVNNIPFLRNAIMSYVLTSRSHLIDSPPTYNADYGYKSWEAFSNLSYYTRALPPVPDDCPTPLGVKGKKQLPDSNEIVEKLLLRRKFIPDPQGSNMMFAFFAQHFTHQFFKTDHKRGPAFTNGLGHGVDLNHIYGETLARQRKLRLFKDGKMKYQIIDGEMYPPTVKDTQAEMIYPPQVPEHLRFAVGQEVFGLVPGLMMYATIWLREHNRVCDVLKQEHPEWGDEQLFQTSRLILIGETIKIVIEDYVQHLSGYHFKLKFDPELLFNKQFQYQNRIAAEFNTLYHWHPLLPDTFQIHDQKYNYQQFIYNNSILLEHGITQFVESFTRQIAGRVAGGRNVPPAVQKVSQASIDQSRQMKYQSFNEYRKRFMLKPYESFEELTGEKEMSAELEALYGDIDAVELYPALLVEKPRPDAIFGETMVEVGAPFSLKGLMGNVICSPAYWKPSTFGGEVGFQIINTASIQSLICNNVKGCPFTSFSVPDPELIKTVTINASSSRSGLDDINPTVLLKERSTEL

[13] = Antioxidant activity assessed as DPPH radical scavenging activity incubated for 30 mins
[14] = test system: Klebsiella pneumoniae; experiment: microbe, parasite or virus in culture; conditions: ATCC 43816, 20 h
Description: Antimicrobial activity against Klebsiella pneumoniae ATCC 43816 assessed as reduction in bacterial growth incubated for 20 hrs by broth microdilution analysis

[15] = test system: Proteus vulgaris; experiment: microbe, parasite or virus in culture; conditions: ATCC 13315, 24 h
Description: Antimicrobial activity against Proteus vulgaris ATCC 13315 assessed as microbial growth inhibition incubated for 24 hrs by broth microdilution method

[16] = test system: Bacillus cereus; experiment: microbe, parasite or virus in culture; conditions: ATCC 14579
Description: Antibacterial activity against Bacillus cereus ATCC 14579 assessed as reduction in bacterial growth incubated for 18 to 24 hrs by broth microdilution method

[17] = test system: Staphylococcus aureus; experiment: microbe, parasite or virus in culture; conditions: NCTC 13616, 20 h
Description: Antibacterial activity against methicillin-resistant Staphylococcus aureus NCTC 13616 assessed as reduction in bacterial growth incubated for 20 hrs by broth micro-dilution method

[18] = test system: Escherichia coli; experiment: microbe, parasite or virus in culture; conditions: ATCC 8739, 20 h
Description: Antimicrobial activity against Escherichia coli ATCC 8739 assessed as reduction in bacterial growth incubated for 20 hrs by broth microdilution analysis

[19] = test system: Bacillus subtilis; experiment: microbe, parasite or virus in culture; conditions: ATCC 6633, 20 h
Description: Antibacterial activity against Bacillus subtilis ATCC 6633 assessed as bacterial growth inhibition measured for 20 hrs by micro-broth dilution method

SMILES: O=C1C=C(NCc2cn(Cc3ccc(C(F)(F)F)cc3)nn2)C(=O)c2ccccc21
IC50 [1]: 6.8 µM
IC50 [2]: 10.4 µM
IC50 [3]: 10.4 µM

MIC [4]: 1 µM (≈ 0.466 µg/mL)
MIC [5]: 1 µM (≈ 0.466 µg/mL)
MIC [6]: 1 µM (≈ 0.466 µg/mL)
MIC [7]: 1 µM (≈ 0.466 µg/mL)
MIC [8]: 1 µM (≈ 0.466 µg/mL)
MIC [9]: 1 µM (≈ 0.466 µg/mL)
MIC [10]: 1 µM (≈ 0.466 µg/mL)
SMILES: CCCCCCCCCCCCn1nnc(-c2n[nH]c(=S)n2N)c1-c1n[nH]c(=S)n1N

MIC [4]: 1 µM (≈ 0.522 µg/mL)
MIC [5]: 1 µM (≈ 0.522 µg/mL)
MIC [6]: 1 µM (≈ 0.522 µg/mL)
MIC [7]: 1 µM (≈ 0.522 µg/mL)
MIC [8]: 1 µM (≈ 0.522 µg/mL)
MIC [9]: 1 µM (≈ 0.522 µg/mL)
MIC [10]: 1 µM (≈ 0.522 µg/mL)
SMILES: CCCCCCCCCCCCCCCCn1nnc(-c2n[nH]c(=S)n2N)c1-c1n[nH]c(=S)n1N

MIC [4]: 1 µM (≈ 0.438 µg/mL)
MIC [5]: 1 µM (≈ 0.438 µg/mL)
MIC [6]: 1 µM (≈ 0.438 µg/mL)
MIC [7]: 1 µM (≈ 0.438 µg/mL)
MIC [8]: 1 µM (≈ 0.438 µg/mL)
MIC [9]: 1 µM (≈ 0.438 µg/mL)
MIC [10]: 1 µM (≈ 0.438 µg/mL)
SMILES: CCCCCCCCCCn1nnc(-c2n[nH]c(=S)n2N)c1-c1n[nH]c(=S)n1N

MIC [4]: 1 µM (≈ 0.494 µg/mL)
MIC [5]: 1 µM (≈ 0.494 µg/mL)
MIC [6]: 1 µM (≈ 0.494 µg/mL)
MIC [7]: 1 µM (≈ 0.494 µg/mL)
MIC [8]: 1 µM (≈ 0.494 µg/mL)
MIC [9]: 1 µM (≈ 0.494 µg/mL)
MIC [10]: 1 µM (≈ 0.494 µg/mL)
SMILES: CCCCCCCCCCCCCCn1nnc(-c2n[nH]c(=S)n2N)c1-c1n[nH]c(=S)n1N

IC50 [11]: 7.4 µM
SMILES: COc1ccc(/C=C/C(=O)c2cc(-n3cc(CN4C(=O)C(=O)c5ccccc54)nn3)ccc2O)cc1

IC50 [11]: 7.4 µM
IC50 [12]: 0.037 µM
SMILES: O=C(/C=C/c1ccc(Br)cc1)c1cc(-n2cc(CN3C(=O)C(=O)c4ccccc43)nn2)ccc1O

IC50 [13]: 28.8 µM
SMILES: O=c1cc(-c2ccc(OCCCn3cc(-c4cc5ccccc5c5ccccc45)nn3)cc2)oc2ccccc12

IC50 [11]: 7.4 µM
IC50 [12]: 0.037 µM
SMILES: O=C(/C=C/c1ccc(O)cc1)c1cc(-n2cc(CN3C(=O)C(=O)c4ccccc43)nn2)ccc1O

IC50 [11]: 7.4 µM
IC50 [12]: 0.037 µM
SMILES: O=C(/C=C/c1ccc(Cl)cc1)c1cc(-n2cc(CN3C(=O)C(=O)c4ccccc43)nn2)ccc1O

IC50 [11]: 7.4 µM
IC50 [12]: 0.037 µM
SMILES: CN(C)C(=O)c1ccc(/C=C/C(=O)c2cc(-n3cc(-c4ccccc4)nn3)ccc2O)cc1

IC50 [11]: 7.4 µM
IC50 [12]: 0.037 µM
SMILES: O=C(/C=C/c1ccc(Br)cc1)c1cc(-n2cc(-c3ccccc3)nn2)ccc1O

SMILES: CC(C)Cc1ccc(C(C)C(=O)c2ccc(OCc3cn(-c4ccccc4)nn3)cc2O)cc1 (stereo not given)
MIC [14]: 12 µg/mL (≈ 26.3 µM)
MIC [15]: 12 µg/mL (≈ 26.3 µM)
MIC [16]: 12 µg/mL (≈ 26.3 µM)
MIC [17]: 12 µg/mL (≈ 26.3 µM)
MIC [18]: 12 µg/mL (≈ 26.3 µM)
MIC [19]: 12 µg/mL (≈ 26.3 µM)

IC50 [11]: 7.4 µM
IC50 [12]: 0.037 µM
SMILES: Cc1ccc(/C=C/C(=O)c2cc(-n3cc(CN4C(=O)C(=O)c5ccccc54)nn3)ccc2O)cc1

IC50 [11]: 7.4 µM
IC50 [12]: 0.037 µM
SMILES: O=C(/C=C/c1ccccc1)c1cc(-n2cc(-c3ccccc3)nn2)ccc1O

IC50 [11]: 7.4 µM
IC50 [12]: 0.037 µM
SMILES: O=C(/C=C/C=C/c1ccccc1)c1cc(-n2cc(-c3ccccc3)nn2)ccc1O

IC50 [11]: 7.4 µM
IC50 [12]: 0.037 µM
SMILES: Cc1ccc(/C=C/C(=O)c2cc(-n3cc(-c4ccccc4)nn3)ccc2O)cc1

SMILES: CC(C)Cc1ccc(C(C)C(=O)c2ccc(OCc3cn(-c4cccc(Cl)c4)nn3)cc2O)cc1 (stereo not given)
MIC [14]: 12 µg/mL (≈ 24.5 µM)
MIC [15]: 12 µg/mL (≈ 24.5 µM)
MIC [16]: 12 µg/mL (≈ 24.5 µM)
MIC [17]: 12 µg/mL (≈ 24.5 µM)
MIC [18]: 12 µg/mL (≈ 24.5 µM)
MIC [19]: 12 µg/mL (≈ 24.5 µM)

IC50 [11]: 7.4 µM
IC50 [12]: 0.037 µM
SMILES: O=C(/C=C/c1ccc(O)cc1)c1cc(-n2cc(-c3ccccc3)nn2)ccc1O
